What was measured:
Conditions in all cases: P<0.05
anti-HBs IgG [1] = test: Test 1: serum anti-HBs IgG level by ELISA after immunization with hepatitis B surface antigen plus adjuvant (composite adjuvant of embodiment 1)
Experimental: Both of the total volume of vaccines and the composite vaccine adjuvant for injection were 0.1 ml.
In the single sodium ferulate adjuvant group, sodium ferulate 10 mg and hepatitis B surface antigen 5 μg were mixed and dissolved into physiological saline 0.1 ml, and then were injected into mice subcutaneously.
(§1) In the adjuvant-free group, hepatitis B surface antigen 5 μg were mixed and dissolved into physiological saline 0.1 ml, and then were injected into mice subcutaneously.
(§2) In the blank group, each mouse was injected with physiological saline 0.1 ml.
(§3) Immunization schemes: three times immunization in total, subcutaneous injection of ICR mice in 0, 1, 6 month respectively.
(§4) B. ELISA Detection of Serum Anti-HBs IgG Level […]
(§5) The obtained experimental data were analyzed by single factor analysis of variance using SPSS11.5 statistics software, and P<0.05 having a statistically significance.

anti-HBs IgG [2] = test: Test 2: serum anti-HBs IgG level by ELISA after immunization with hepatitis B surface antigen plus adjuvant (composite adjuvant of embodiment 2)
Experimental: Both of the total volume of vaccine for injection and of the composite vaccine adjuvant were 0.1 ml.
In the single sodium ferulate adjuvant group, sodium ferulate 25 mg and hepatitis B surface antigen 5 μg were mixed and dissolved into physiological saline 0.1 ml, and then were injected into mice subcutaneously.
In the adjuvant-free group, hepatitis B surface antigen 5 μg were dissolved into physiological saline 0.1 ml, and then were injected into mice subcutaneously.
as §2, §3, §4, §5

anti-HBs IgG [3] = test: Test 3: serum anti-HBs IgG level by ELISA after immunization with hepatitis B surface antigen plus adjuvant (composite adjuvant of embodiment 3)
Experimental: Both of the total volume of vaccines for injection and of the composite vaccine adjuvant were 0.1 ml.
In the single sodium ferulate adjuvant group, sodium ferulate 50 mg and hepatitis B surface antigen 5 μg were mixed and dissolved into physiological saline 0.1 ml, and then were injected into mice subcutaneously.
as §1, §2, §3
B. ELISA Detection of Serum Anti-HBs IgG Level
After 4, 8, 16, 24, 32 weeks of the initial immunization, collect vein blood of mouse tail, separate serum, and then use ELISA to detect the serum anti-HBs IgG level by method of protein microporous kit. […]
as §5

Measured: antibody levels compared with the aluminum adjuvant control group

[OH-].[OH-].[Zn+2] [zinc hydroxide]
significantly higher: all assays above

Reference: US8722030B2, “Composite vaccine adjuvant” (Institute of Medical Biology, Chinese Academy of Medical …, priority 2011, dated 2014)
